According to US9238039B2, “Pyrazolo[1,5-A]pyrimidines for antiviral treatment” (Gilead Sciences, Inc., priority 2010, dated 2016):

System: RSV strain A2
Experiment: RSV antiviral cytoprotection assay in Hep2 cells (96-well and 384-well format, Cell TiterGlo read-out)
Assay type: cell-based, Respiratory Syncytial Virus (RSV)
Settings: for inhibition at 0.5 µM: HEp-2, 0.5 uM; for EC50: Hep2 cells, class symbols; for inhibition at 1 µM: HEp-2, 1 uM
[1] = human respiratory syncytial virus, RSV-induced cytopathic effect in Hep2 cells, calculated from fitted dose response curve, normalized to 0% and 100%
[2] = human respiratory syncytial virus, HEp-2, RSV-induced cytopathic effects

SMILES | inhibition at 0.5 µM [1] [%] | EC50 [2] [nM] | inhibition at 1 µM [1] [%] | % inh @ 0.5 uM (0.5 uM, RSV-induced cytopathic effect in Hep2 cells, calculated from fitted dose response curve, normalized to 0% and 100%) [%] | EC50 (RSV-induced cytopathic effects) [nM]
Cc1cn2nc([C@@H]3CCCCN3C(=O)c3cc(Cl)ccc3NS(C)(=O)=O)cc2nc1N1CCC[C@H]1CN1CCCC1 [Compound 206] | 99 | 0.1 to 100 | – | – | –
CS(=O)(=O)Nc1ccc(Cl)cc1C(=O)N1CCCC[C@H]1c1cc2nc(N3CCC3)cc(N3CC4(COC4)C3)n2n1 [Compound 75] | 100 | 0.1 to 100 | – | – | –
CS(=O)(=O)Nc1ccc(Cl)cc1C(=O)N1CCCC[C@H]1c1cc2nc(N3CC(O)C3)ccn2n1 [Compound 49] | 98 | 0.1 to 100 | – | – | –
Cc1ccc(Cl)cc1C(=O)N1CCCC[C@H]1c1cc2nc(N3CC[C@H](N)C3)c(C)cn2n1 [Compound 335] | 99 | 0.1 to 100 | – | – | –
CNC1CCN(c2nc3cc([C@@H]4CCCCN4C(=O)c4cc(Cl)ccc4NS(C)(=O)=O)nn3cc2C)C1 (some centres unmarked) [Compound 78] | 98 | 0.1 to 100 | – | – | –
Cc1cn2nc([C@@H]3CCCCN3C(=O)c3cc(Cl)ccc3NS(C)(=O)=O)cc2nc1N1CC(C)C1 [Compound 129] | 100 | 0.1 to 100 | – | – | –
Cc1cn2nc([C@@H]3CCCCN3C(=O)c3scc4c3OCCO4)cc2nc1N1CC[C@H](N)C1 [Compound 373] | 99 | 0.1 to 100 | – | – | –
CS(=O)(=O)Nc1ccc(Cl)cc1C(=O)N1CCCC[C@H]1c1cc2nc(N3CCC3)cc(N3CCC(O)C3)n2n1 (some centres unmarked) [Compound 57] | 100 | 0.1 to 100 | – | – | –
Cc1cc(C2CC2)nc2cc([C@@H]3CCCCN3C(=O)C(NC(=O)OC(C)(C)C)c3ccccc3Br)nn12 (some centres unmarked) [Compound 237] | 99 | 0.1 to 100 | – | – | –
Cc1cn2nc([C@@H]3CCCCN3C(=O)c3cc(O)ccc3Cl)cc2nc1N1CC[C@H](N)C1 [Compound 339] | 99 | 0.1 to 100 | – | – | –
Cc1cn2nc([C@@H]3CCCCN3C(=O)c3c(C)cccc3NS(C)(=O)=O)cc2nc1N1CCC1 [Compound 225] | 100 | 0.1 to 100 | – | – | –
Cc1[nH]c2cc([C@@H]3CCCCN3C(=O)c3ccccc3NC(=O)OC(C)(C)C)nn2c(=O)c1C [Compound 2] | 36 | 101 to 1000 | 46 | – | –
Cc1ccc(NS(C)(=O)=O)c(C(=O)N2CCCC[C@H]2c2cc3nc(C)c(C)c(C4CC4)n3n2)c1 [Compound 87] | 84 | 101 to 1000 | – | – | –
CCOc1ccccc1C(=O)N1CCCC[C@H]1c1cc2nc(N3CC[C@H](N)C3)c(C)cn2n1 [Compound 323] | 100 | 0.1 to 100 | – | – | –
Cc1cn2nc([C@@H]3CCCCN3C(=O)c3ccc(-c4ccccc4)cc3)cc2nc1N1CC[C@H](N)C1 [Compound 406] | 98 | 0.1 to 100 | – | – | –
Cc1cc(C2CC2)nc2cc([C@@H]3CCCCN3C(=O)C(c3ccccc3)N(C)C)nn12 (some centres unmarked) [Compound 239] | 36 | 101 to 1000 | – | – | –
Cc1ccc(N2CCCS2(=O)=O)c(C(=O)N2CCCC[C@H]2c2cc3nc(C4CC4)cc(C)n3n2)c1 [Compound 113] | 100 | 0.1 to 100 | – | – | –
COCc1ccc(C(=O)N2CCCC[C@H]2c2cc3nc(N4CC[C@H](N)C4)c(C)cn3n2)cc1 [Compound 321] | 100 | 0.1 to 100 | – | – | –
Cc1cn2nc([C@@H]3CCCCN3C(=O)c3cnn(C4CCCC4)c3)cc2nc1N1CC[C@H](N)C1 [Compound 366] | 100 | 0.1 to 100 | – | – | –
Cc1cn2nc([C@@H]3CCCCN3C(=O)c3cncs3)cc2nc1N1CC[C@H](N)C1 [Compound 269] | 90 | 0.1 to 100 | – | – | –
Cc1ccc(NS(C)(=O)=O)c(C(=O)N2CCCC[C@H]2c2cc3nc(C)c(C)c(-c4ccccc4)n3n2)c1 [Compound 86] | 99 | 0.1 to 100 | – | – | –
Cc1ccc(O)cc1C(=O)N1CCCC[C@H]1c1cc2nc(N3CC[C@H](N)C3)c(C)cn2n1 [Compound 292] | 59 | 101 to 1000 | – | – | –
Cc1cn2nc([C@@H]3CCCCN3C(=O)c3cc(Cl)ccc3NS(C)(=O)=O)cc2nc1N1CC[C@@H](C)C1 [Compound 204] | 98 | 0.1 to 100 | – | – | –
Cc1cn2nc([C@@H]3CCCCN3C(=O)c3cccc(C)c3Cl)cc2nc1N1CC[C@H](N)C1 [Compound 334] | 100 | 0.1 to 100 | – | – | –
Cc1cn2nc([C@@H]3CCCCN3C(=O)c3cccc(Cl)c3C)cc2nc1N1CC[C@H](N)C1 [Compound 331] | 99 | 0.1 to 100 | – | – | –
Cc1cn2nc([C@@H]3CCCCN3C(=O)c3cc(Cl)ccc3NS(C)(=O)=O)cc2nc1N1CCC(C#N)CC1 [Compound 215] | 99 | 0.1 to 100 | – | – | –
Cc1[nH]c2cc([C@@H]3C[C@@H](C)CCN3C(=O)c3cc(F)ccc3NS(C)(=O)=O)nn2c(=O)c1C [Compound 22] | 95 | 0.1 to 100 | 99 | – | –
Cc1cn2nc([C@@H]3CCCCN3C(=O)c3cccc(-c4cccnc4)c3)cc2nc1N1CC[C@H](N)C1 [Compound 411] | 95 | 101 to 1000 | – | – | –

SMILES | inhibition at 0.5 µM [1] [%] | EC50 [2] [nM] | inhibition at 1 µM [1] [%] | % inh @ 0.5 uM (0.5 uM, RSV-induced cytopathic effect in Hep2 cells, calculated from fitted dose response curve, normalized to 0% and 100%) [%] | EC50 (RSV-induced cytopathic effects) [nM]
Cc1cc(Cl)ccc1C(=O)N1CCCC[C@H]1c1cc2nc(N3CC[C@H](N)C3)c(C)cn2n1 [Compound 333] | 99 | 0.1 to 100 | – | – | –
Cc1cn2nc([C@@H]3CCCCN3C(=O)c3ccnn3C)cc2nc1N1CC[C@H](N)C1 [Compound 263] | 99 | 0.1 to 100 | – | – | –
Cc1cc(C2CC2)nc2cc([C@@H]3CCCCN3C(=O)c3cc(Cl)ccc3NS(C)(=O)=O)nn12 [Compound 60] | 100 | 0.1 to 100 | – | – | –
Cc1cn2nc([C@@H]3CCCCN3C(=O)c3cc(Cl)ccc3NS(C)(=O)=O)cc2nc1N1CC[C@@H](N)C1 [Compound 232] | 100 | 0.1 to 100 | – | – | –
CCc1ccc(NS(C)(=O)=O)c(C(=O)N2CCCC[C@H]2c2cc3[nH]c(C)c(C)c(=O)n3n2)c1 [Compound 116] | 98 | 0.1 to 100 | – | – | –
Cc1cn2nc([C@@H]3CCCCN3C(=O)c3ccccc3C(F)(F)F)cc2nc1N1CC[C@H](N)C1 [Compound 387] | 77 | 101 to 1000 | – | – | –
Cc1ccc(C(=O)N2CCCC[C@H]2c2cc3nc(N4CC[C@H](N)C4)c(C)cn3n2)cc1Cl [Compound 332] | 100 | 0.1 to 100 | – | – | –
COc1cccc(C(=O)N2CCCC[C@H]2c2cc3nc(N4CC[C@H](N)C4)c(C)cn3n2)c1Cl [Compound 377] | 99 | 0.1 to 100 | – | – | –
Cc1ccc(NS(C)(=O)=O)c(C(=O)N2CCCC(C)C2c2cc3[nH]c(C)c(C)c(=O)n3n2)c1 (centres unmarked) [Compound 37] | – | – | – | 100 | 0.1 to 100
Cc1cn2nc([C@@H]3CCCCN3C(=O)c3cc(Cl)ccc3NS(C)(=O)=O)cc2nc1N1CCC[C@@H](N)C1 [Compound 231] | 98 | 0.1 to 100 | – | – | –
Cc1[nH]c2cc([C@@H]3CCCCN3C(=O)c3cc(F)ccc3NS(C)(=O)=O)nn2c(=O)c1F [Compound 19] | 67 | 101 to 1000 | 84 | – | –
Cc1cn2nc([C@@H]3CCCCN3C(=O)c3cc(Cl)ccc3NS(C)(=O)=O)cc2nc1N1CCC(C)(C#N)C1 (some centres unmarked) [Compound 205] | 91 | 0.1 to 100 | – | – | –
Cc1cn2nc([C@@H]3CCCCN3C(=O)c3cc(Cl)ccc3Cl)cc2nc1N1CC[C@H](N)C1 [Compound 391] | 99 | 0.1 to 100 | – | – | –
Cc1cn2nc([C@@H]3CCCCN3C(=O)c3cccnc3N)cc2nc1N1CC[C@H](N)C1 [Compound 275] | 100 | 0.1 to 100 | – | – | –
Cc1cc(N2CCCC2)nc2cc([C@@H]3CCCCN3C(=O)c3cc(Cl)ccc3NS(C)(=O)=O)nn12 [Compound 46] | 100 | 0.1 to 100 | – | – | –
Cc1cn2nc([C@@H]3CCCCN3C(=O)c3cc(Cl)ccc3NS(C)(=O)=O)cc2nc1N1CC(OC(=O)[C@@H]2CCCN2)C1 [Compound 171] | 100 | 0.1 to 100 | – | – | –
Cc1cn2nc([C@@H]3CCCCN3C(=O)c3cc(Cl)ccc3NS(C)(=O)=O)cc2nc1N1CC(N)C(F)C1 (some centres unmarked) [Compound 250] | 90 | 0.1 to 100 | – | – | –
Cc1cn2nc([C@@H]3CCCCN3C(=O)c3cccc4c3ccn4C)cc2nc1N1CC[C@H](N)C1 [Compound 349] | 100 | 0.1 to 100 | – | – | –
Cc1[nH]c2cc([C@@H]3CCCCN3C(=O)c3cc(F)cc(Cl)c3NS(C)(=O)=O)nn2c(=O)c1C [Compound 127] | 99 | 0.1 to 100 | – | – | –
Cc1cc(N(C)C)nc2cc([C@@H]3CCCCN3C(=O)c3cc(Cl)ccc3NS(C)(=O)=O)nn12 [Compound 41] | 95 | 0.1 to 100 | – | – | –
Cc1cc(N2CC(O)C2)nc2cc([C@@H]3CCCCN3C(=O)c3cc(Cl)ccc3NS(C)(=O)=O)nn12 [Compound 40] | 100 | 0.1 to 100 | – | – | –
Cc1cc(C)n2nc(C(=O)N3CCCCC3c3cc4nc(N5CC[C@H](N)C5)c(C)cn4n3)nc2n1 (some centres unmarked) [Compound 397] | 3 | 1000 to 10000 | – | – | –
CS(=O)(=O)Nc1ccc(Cl)cc1C(=O)N1CCCC[C@H]1c1cc2nc(N3CC(O)C3)cc(N3CCOCC3)n2n1 [Compound 69] | 100 | 0.1 to 100 | – | – | –
CCOc1cccc(C(=O)N2CCCC[C@H]2c2cc3nc(N4CC[C@H](N)C4)c(C)cn3n2)c1 [Compound 319] | 100 | 0.1 to 100 | – | – | –
Cc1cn2nc([C@@H]3CCCCN3C(=O)c3cnn(C)c3C)cc2nc1N1CC[C@H](N)C1 [Compound 279] | 63 | 101 to 1000 | – | – | –
Cc1cn2nc([C@@H]3CCCCN3C(=O)c3ncc(F)cc3F)cc2nc1N1CC[C@H](N)C1 [Compound 310] | 100 | 0.1 to 100 | – | – | –
Cc1ccc(NS(C)(=O)=O)c(C(=O)N2CCCC[C@H]2c2cc3nc(C4CC4)cc(N4CCOCC4)n3n2)c1 [Compound 62] | 100 | 0.1 to 100 | – | – | –
